Source: patent US20030138485A1, “Disintegrant” (DAIICHI PHARMACEUTICAL CO., LTD., priority 1998, published 2003)
In brackets after ≈: the same amount, converted by molar mass.

Assays:
[1] = Measurement of viscosity of a saturated aqueous solution; assay type: physicochemical; conditions: B-type viscometer
Method: (2) Measurement of Viscosity of a Saturated Aqueous Solution
A saturated aqueous solution of a sample was prepared at 37° C., and the resultant solution was filtered by use of a membrane filter. The viscosity of the solution was measured by use of the resultant filtrate at 37° C. by means of a B-type viscometer.

[2] = physchem; conditions: water
[3] = general description; cited from earlier work
[4] = Increase in weight by moisture absorption; assay type: physicochemical; conditions: for moisture absorption (in words): 25° C., relative humidity 75%, seven days, Table 2; for increase in weight by moisture absorption: sample stored 25° C., 75% open air, 7 days
Method: (7) Increase in Weight by Moisture Absorption
A sample tablet was weighed before and after moisture absorption, and the increase in weight of the tablet by moisture absorption (%) was calculated.
In test Example 2, erythritol and trehalose (in the form of hydrous crystals, products of Hayashibara Shoji Inc.) and xylitol and maltose (in the form of anhydrous crystals, products of Nihon Shokuhin Kako Co., Ltd.) were stored for seven days at a temperature of 25° C. and a relative humidity of 75%. Thereafter, each of these was subjected to measurement of increase in weight by moisture absorption (%). In Reference Example 2, the increases in weight by moisture absorption (%) of cornstarch, low substituted hydroxypropylcellulose, carmellose, carmellose calcium, and carmellose sodium were measured in the same manner as in Test Example 2. These compounds had been dried in a drier at 80° C. for one hour, and then employed as samples.

| Structure (SMILES) | Viscosity (37° C.) [1] | solubility thermodynamic [2] | heat of dissolution [3] | hygroscopicity (in words) [3] | solubility in water (in words) [3] | moisture absorption (in words) [4] | increase in weight by moisture absorption [4] |
| --- | --- | --- | --- | --- | --- | --- | --- |
| OC[C@@H](O)[C@@H](O)[C@H](O)[C@H](O)CO [D-Mannitol, reference compound] | 1.6 mPa · s | 240 mg/mL (≈ 1320 mM) | – | – | – | – | – |
| OC[C@@H](O)[C@@H](O)[C@H](O)[C@@H](O)CO [D-Sorbitol, reference compound] | 2090 or more mPa · s | – | – | – | – | – | – |
| OC[C@@H](O)[C@@H](O)CO [Erythritol] | 3.5 mPa · s | 450 mg/mL (≈ 3680 mM) | -42.9 cal/g | not hygroscopic | easily dissolved in water | absorb little moisture | 0.03% |
| OC[C@@H](O)[C@@H](O[C@@H]1O[C@H](CO)[C@H](O)[C@H](O)[C@H]1O)[C@H](O)[C@@H](O)CO [Hydrogenated lactose, reference compound] | 218 mPa · s | – | – | – | – | – | – |
| OC[C@H]1O[C@@H](O[C@H]2[C@H](O)[C@@H](O)C(O)O[C@@H]2CO)[C@H](O)[C@@H](O)[C@H]1O (some centres unmarked) [Lactose, reference compound] | 1.7 mPa · s | – | – | – | – | – | – |
| OC[C@H]1O[C@H](O[C@H]2[C@H](O)[C@@H](O)[C@H](O)O[C@@H]2CO)[C@H](O)[C@@H](O)[C@@H]1O [Maltose] | 38 mPa · s | – | – | – | – | absorb little moisture | 0.06% |
| CC(=O)[O-].[K+] [Potassium acetate] | 30 mPa · s | – | – | – | – | – | – |
| CC(=O)[O-].[Na+] [Sodium acetate] | 5.2 mPa · s | – | – | – | – | – | – |
| OC[C@H]1O[C@@](CO)(O[C@H]2O[C@H](CO)[C@@H](O)[C@H](O)[C@H]2O)[C@@H](O)[C@@H]1O [Sucrose, reference compound] | 1120 mPa · s | 780 mg/mL (≈ 2280 mM) | – | – | – | – | – |
| OC[C@H]1O[C@H](O[C@H]2O[C@H](CO)[C@@H](O)[C@H](O)[C@H]2O)[C@H](O)[C@@H](O)[C@@H]1O [Trehalose] | 11 mPa · s | 500 mg/mL (≈ 1460 mM) | – | not hygroscopic | easily dissolved in water | absorb little moisture | 0.99% |
| OC[C@@H](O)[C@H](O)[C@@H](O)CO [Xylitol] | 37 mPa · s | 740 mg/mL (≈ 4860 mM) | -35 cal/g | slightly hygroscopic | very easily dissolved in water | absorb little moisture | 0.05% |
